From patent US20100152531A1, “IMPLANTABLE MEDICAL DEVICE FOR DRUG DELIVERY AND METHOD OF USE” (Paracor Medical, Inc., priority 2008, published 2010)
Values joined by “and” are separate entries in the source; they are usually repeats but may differ in a detail not shown here. Equal entries are not always repeated. Where two headings read alike, the source gives them in different places. Values belong to the molecule of their own block, whether it stands above or below them.

Experiments:
rats with MI = details: cited from earlier work
[1] = Half life of NONOates (diazeniumdiolates) at 37° C., pH 7.4; type: physicochemical
Excerpt: Diazeniumdiolates, more commonly referred to as NONOates, have been extremely useful in the investigation of the biological effects of nitric oxide (NO) and related nitrogen oxides. […] FIG. 55 illustrates an exemplary chemical reaction.

coronaries of pigs = details: delivered intrapericardially; cited from earlier work
[2] = cited from earlier work
aldosterone receptors = target: T1, aldosterone receptors (Homo sapiens, UniProt P08235); details: cited from earlier work
T1 construct: host or cells: heart failure patients (in vivo)
T1 sequence (P08235 1-984): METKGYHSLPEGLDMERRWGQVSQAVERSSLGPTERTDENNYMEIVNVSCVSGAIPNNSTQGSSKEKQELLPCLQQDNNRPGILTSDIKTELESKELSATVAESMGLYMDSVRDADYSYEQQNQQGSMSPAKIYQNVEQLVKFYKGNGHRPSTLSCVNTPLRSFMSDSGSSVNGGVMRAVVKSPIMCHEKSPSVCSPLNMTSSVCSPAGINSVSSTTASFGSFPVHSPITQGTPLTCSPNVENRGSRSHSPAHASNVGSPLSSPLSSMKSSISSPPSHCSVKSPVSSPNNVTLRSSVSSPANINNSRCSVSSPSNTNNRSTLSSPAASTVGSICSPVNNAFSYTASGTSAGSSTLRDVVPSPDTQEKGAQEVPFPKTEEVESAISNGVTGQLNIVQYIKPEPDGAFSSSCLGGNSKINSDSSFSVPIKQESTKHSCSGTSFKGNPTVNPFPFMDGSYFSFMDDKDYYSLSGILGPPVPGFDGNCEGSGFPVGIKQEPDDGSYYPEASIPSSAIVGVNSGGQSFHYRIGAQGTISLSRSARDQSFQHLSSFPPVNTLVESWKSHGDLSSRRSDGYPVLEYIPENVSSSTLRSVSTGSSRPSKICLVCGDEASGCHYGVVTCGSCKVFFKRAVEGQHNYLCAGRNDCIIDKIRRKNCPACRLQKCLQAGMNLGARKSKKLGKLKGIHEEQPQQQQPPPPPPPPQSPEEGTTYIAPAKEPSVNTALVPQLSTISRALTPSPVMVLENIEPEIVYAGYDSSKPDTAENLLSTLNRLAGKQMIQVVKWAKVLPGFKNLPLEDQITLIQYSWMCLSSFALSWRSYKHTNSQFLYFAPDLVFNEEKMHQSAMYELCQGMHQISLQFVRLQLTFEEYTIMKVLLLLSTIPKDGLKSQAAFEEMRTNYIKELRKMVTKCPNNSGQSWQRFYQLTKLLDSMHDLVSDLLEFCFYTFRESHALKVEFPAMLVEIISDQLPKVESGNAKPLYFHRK

mice with aortic banding = details: mouse, in vivo; cited from earlier work
[3] = oral, cited from earlier work

SMILES: CO[C@H]1C[C@@H]2CC[C@@H](C)[C@@](O)(O2)C(=O)C(=O)N2CCCC[C@H]2C(=O)O[C@H]([C@H](C)C[C@@H]2CC[C@@H](OCCO)[C@H](OC)C2)CC(=O)[C@H](C)/C=C(\C)[C@@H](O)[C@@H](OC)C(=O)[C@H](C)C[C@H](C)/C=C/C=C/C=C/1C [everolimus]
EF (rats with MI; compared to untreated MI rats): significant increase
LV end-diastolic diameter (rats with MI; compared to untreated MI rats): significant reduction
reduction of myocyte size (rats with MI; rat, in vivo): 33%

half-life ([1]; buffer): 20 h
SMILES: NCCN(CCN)[N+]([O-])=NO [Compound 5, 1-[N-(2-Aminoethyl)-N-(2-ammonioethyl)amino]diazen-1-ium-1,2-diolate]

Half Life 37° C., pH 7.4 [1]: 2 min
SMILES: CN(C)/[N+]([O-])=N/[O-].[Na+] [Compound 2, Sodium (Z)-1-(N,N-Dimthylanimo)diazen-1-ium-1,2-dilate]

Half Life 37° C., pH 7.4 [1]: 3 hrs
SMILES: NCCCN(CCCN)/[N+]([O-])=N/O [Compound 4]

Half Life 37° C., pH 7.4 [1]: 0.2 min
SMILES: CN(C)[N+]([O-])=N[O-].[Na+] [Compound 1, Sodium 1-(N,N-Dimthylanimo)diazen-1-ium-1,2-dilate]

SMILES: CC(=O)O[C@H]1C(=O)[C@@]2(C)[C@H]([C@H](OC(=O)c3ccccc3)[C@]3(O)C[C@H](OC(=O)[C@H](O)[C@@H](NC(=O)c4ccccc4)c4ccccc4)C(C)=C1C3(C)C)[C@]1(OC(C)=O)CO[C@@H]1C[C@@H]2O [Paclitaxel]
neointimal proliferation in the coronaries in response to balloon injury (coronaries of pigs): inhibit neointimal proliferation

SMILES: CC(=O)S[C@@H]1CC2=CC(=O)CC[C@]2(C)[C@H]2CC[C@@]3(C)[C@@H](CC[C@@]34CCC(=O)O4)[C@H]12 [spironolactone]
blood pressure decrease ([2]; doses above 150 mg): no additional decrease
incidence of gynecomastia ([2]; doses of 50 mg or less): 8.9%
incidence of gynecomastia ([2]; doses of 150 mg or higher): 52.2%
blood pressure decrease ([2]; doses of 25 to 50 mg): 5.3% and 8.5%
blood pressure decrease ([2]; doses of 75 to 100 mg): 12.4% and 12.2%
blocking the aldosterone receptors and decreasing atrial natriuretic peptide concentrations (aldosterone receptors; dose of 12.5 to 25 mg daily): effective
incidence of serious hyperkalemia (aldosterone receptors; high-risk heart failure patients, with ACE inhibitor): low incidence
risk of both morbidity and death (aldosterone receptors; high-risk heart failure patients): significantly reduced
daily dose at which serious hyperkalemia occurs most frequently (aldosterone receptors; in vivo): ≥ 50 mg

Half Life 37° C., pH 7.4 [1]: 17 days
SMILES: COCON=[N+]([O-])N1CCNCC1 [Compound 7, O^2-Methozymethyl 1-(Piperazin-1-yl)diazen-1-ium-1,2-diolate]

SMILES: CO[C@H]1C[C@@H]2CC[C@@H](C)[C@@](O)(O2)C(=O)C(=O)N2CCCC[C@H]2C(=O)O[C@H]([C@H](C)C[C@@H]2CC[C@@H](O)[C@H](OC)C2)CC(=O)[C@H](C)/C=C(\C)[C@@H](O)[C@@H](OC)C(=O)[C@H](C)C[C@H](C)/C=C/C=C/C=C/1C [sirolimus]
body weight, lung weight, or liver weight (mice with aortic banding): without affecting
patients who experienced side effects (mild to severe) ([3]; 2 mg daily): 43%
patients who experienced side effects (mild to severe) ([3]; 5 mg daily): 66%
